Experimental data published in patent publication US12486218B2, “Compounds advantageous in the treatment of central nervous system diseases and disorders” (AurimMed Pharma, Inc., priority 2008, dated 2025).
Like-named read-outs stand apart in the source and are kept apart here. Blank lines part the entries; values can stand above or below the molecule they belong to.

Columns and labels:
mice [1] = assay: Subcutaneous Metrazol Seizure threshold (s.c. MET) test, mice i.p.; format: in vivo; conditions: for ED50: Mus musculus, mice, i.p.; for s.c. MET, fraction of animals: mice i.p.
mice [2] = assay: Minimal motor impairment (MID50), mice i.p.; conditions: for MID50, fraction of animals: mice i.p., 100 mg/kg @ 0.5 hr; for MID50 (median minimal motor impairment dose): mice, i.p.
C3A hepatocyte cells [3] = assay: ACTIVTox Cell Proliferation Assay; format: cell-based; conditions: at a concentration of 100 μM
mice [4] = assay: 6 Hz (minimal clonic seizure) model, mice i.p.; format: in vivo; conditions: mice i.p.
C3A hepatocyte cells [5] = assay: ACTIVTox LDH release assay; format: cell-based
Procedure: Compounds A, I, H, and F were tested by Stem Cell Innovations, Inc. (Houston, TX) in their ACTIVTox® Human Liver Cell-based assays (using C3A hepatocyte cells). Specifically, the compounds were tested in the LDH release assay, which determines the release of Lactate DeHydrogenase (an indicator of cell death) at various concentrations of test compound.
A concentration of 100 µM of test compound is a much higher level of exposure to liver cells than would ever be expected under physiological conditions. Therefore, using 100 μM as a standard test concentration (for comparative purposes), the ratio of the absorbance (which measures the level of LDH release) resulting from the presence of the test compound versus the negative control is a value known as the “average (or mean) fold control” (Average Fold Control=Average of Absorbance/Average of Negative Control).

rats [6] = assay: Pilocarpine-induced Status Epilepticus in Rats (prevention; intervention @ 30 min); conditions: Rattus norvegicus
mice [7] = assay: Maximal Electroshock Seizure (MES) test, mice i.p.; format: in vivo; conditions: for ED50: Mus musculus, ip; for MES, fraction of animals: mice i.p.
mice [8] = assay: Corneal kindled mouse model; format: in vivo; conditions: mice i.p.; 100 mg/kg @ 0.5 hr
rats [9] = assay: MES test, rats p.o.; format: in vivo; conditions: at 30 mg/kg
rats [10] = assay: s.c. MET test, rats p.o.; format: in vivo; conditions: at 30 mg/kg
rats [11] = assay: Hippocampal Kindled Rats model; format: in vivo; conditions: rats, at 100 mg/kg
rats [12] = assay: Sciatic nerve ligation model in rats; format: in vivo; conditions: 100 mg/kg
Procedure: [The response (threshold for foot withdrawal) was measured in grams.]

mice [13] = assay: Effects observed in mice after i.p. injection (CNS stimulation, diarrhea); format: in vivo; conditions: 30 minutes after i.p. injection of 100 mg/kg
Procedure: In addition, two further tertiary amide compounds, BJ and BT, produced diarrhea in the mice 30 minutes after i.p. injection of 100 mg/kg of each.

[14] = 0.5 h, read-out: Intervention @ 30 min, Protection
[15] = read-out: Prevention, Protection

Structure (SMILES): CC(CC(N)=O)c1cccc(OC(F)(F)F)c1 (stereo not shown) [I, 3-[3-(trifluoromethoxy)-phenyl]butyramide]
- ED50 (mice [1]): ≤ 100 mg/kg
- s.c. MET, fraction of animals (mice [1]; 100 mg/kg @ 0.5 hr): 1/1 @0.5,
- s.c. MET, fraction of animals (mice [1]; 100 mg/kg @ 4.0 hr): 1/5 @ 4.0 hr
- MID50, fraction of animals (mice [2]): 8/8 @0.50 hr,
- MID50 (median minimal motor impairment dose) (mice [2]): <100 mg/kg
- Cell Proliferation Assay, mean fold control (C3A hepatocyte cells [3]): 1.25
- toxicity to proliferating cells (C3A hepatocyte cells [3]): non-toxic
- 6 Hz (32 mA), fraction of animals (mice [4]; 50 mg/kg @ 0.25 hr): 3/4
- 6 Hz (32 mA), fraction of animals (mice [4]; 50 mg/kg @ 0.5 hr): 2/4
- 6 Hz (32 mA), fraction of animals (mice [4]; 100 mg/kg @ 4.0 hr): 2.0 and 1/4
- LDH release, mean fold control (C3A hepatocyte cells [5]; at 100 μM, C3A hepatocyte cells, value below 1.75 = no cyto- or hepatotoxic activity): 1.03
- cyto- or hepatotoxicity, ACTIVTox data (C3A hepatocyte cells [5]; at physiologically relevant concentrations (i.e., <100 µM)): not cyto- or hepatotoxic
- responders at 130 mg/kg (rats [6]; [14]): 100%
- responders at 65 mg/kg (rats [6]; [15]): 86%
- ED50 (mice [7]; mice): < 100 mg/kg
- MES, fraction of animals (mice [7]; 100 mg/kg @ 0.5 hr): 3/3 @0.5,
- MES, fraction of animals (mice [7]; 100 mg/kg @ 4.0 hr): 3/3 @ 4.0 hr
- Corneal Kindled, Average seizure score (mice [8]): score is 0:
- Corneal Kindled, fraction of animals (mice [8]): 4/4 @
- activity in the MES test (rats [9]): activity

Structure (SMILES): CC(CC(N)=O)c1cccc(C(F)(F)F)c1 (stereo not shown) [Compound G, 3-[3-(trifluoromethyl)-phenyl]butyramide]
- activity in the s.c. MET test (rats [10]): activity
- ED50 (mice [1]): ≤ 100 mg/kg
- s.c. MET, fraction of animals (mice [1]; 100 mg/kg @ 0.5 hr): 1/1 @0.5
- seizure score, Hippocampal Kindled Rats model (rats [11]): significantly lowering the seizure score
- MID50, fraction of animals (mice [2]): 7/8 @0.5 hr
- MID50 (median minimal motor impairment dose) (mice [2]): <100 mg/kg
- responders at 200 mg/kg (rats [6]; [14]): 88%
- responders at 200 mg/kg (rats [6]; [15]): 100%
- ED50 (mice [7]; mice): < 100 mg/kg
- MES, fraction of animals (mice [7]; 100 mg/kg @ 0.5 hr): 3/3 @0.5
- MES, fraction of animals (mice [7]; 100 mg/kg @ 4.0 hr): hr, 1/3 @
- allodynic threshold (rats [12]; 1 hour post-administration): 275 % of the control
- allodynic threshold (rats [12]; 2 hours post-administration): 219 % of the control
- allodynic threshold (rats [12]; 4 hours post-administration): 175 % of the control
- activity in the MES test (rats [9]): activity

- effect produced in the mice (mice [13]): diarrhea
Structure (SMILES): CC(CC(=O)N1CCCC(C(N)=O)C1)c1ccc(OC(F)(F)F)cc1 (stereo not shown) [BT, 1-[3-(4-Trifluoromethoxy-phenyl)-butyryl]-piperidine-3-carboxylic acid amide]

- effect produced in the mice (mice [13]): diarrhea
Structure (SMILES): CC(CC(=O)N1CCN(C)CC1)c1ccc(OC(F)(F)F)cc1.Cl (stereo not shown) [BJ, 1-(4-Methyl-piperazin-1-yl)-3-(4-trifluoromethoxy-phenyl)-butan-1-one hydrochloride]
- MES, fraction of animals (mice [7]; 100 mg/kg @ 0.25 hr): 2/3 @
- activity in the MES test (mice [7]; mice, at 100 mg/kg): activity
- activity in the MES test (rats [9]): activity
